From patent US20230310421A1, “MOLECULES FOR USE IN THE TREATMENT OF VIRAL INFECTIONS” (priority 2020, published 2023)

Columns and labels:
MHV-A59 = assay: Direct (intrinsic) antiviral activity: survival, titer and syncitia formation in L929, BMDMs and LA4 cells; assay type: cell-based, Murine Hepatitis Virus
L929 cells = assay: Macrophage extrinsic cytotoxic activity (ECT): supernatant of MHV-infected BMDM on L929 cells, CellTiter-Glo / live imaging; details: L929 cells exposed to supernatant from MOI 0.1-infected BMDM

## N[C@H]1CC[C@H](N[C@@H]2C[C@H]2c2ccccc2)CC1 [Ory1001]
MHV-A59; drug applied directly on infected L929 cells
  intrinsic antiviral activity: elicited intrinsic antiviral activity

## JAK inhibitor I
MHV-A59
  effect on DDP rescue of cell viability of infected L929 cells: No effect
L929 cells
  effect on ECT (viability in uninfected cells): no effect
